Legend:
[1] = system: pho operon genes in S. meliloti cells; experiment: Quantitative RT-PCR analysis of pho operon genes; assay type: cell-based; conditions: for phoB regulatory gene expression (qRT-PCR): P-sufficient (13 mM K-phosphate), vs untreated 1021 cells
Protocol: FIG. S1. Quantitative RT-PCR analysis of pho operon genes in S. meliloti cells under P-sufficient conditions (13 mM K-phosphate). The relative expression level was >1 for genes more highly expressed in RD64 and in 1021 cells treated for 3 hours with 0.5 mM IAA, Ind, Trp, ICA and 2,4-D. The relative expression level was <1 for genes more highly expressed in 1021 cells (control). Error bars represent the standard deviation from three independent biological experiments.
FIG. 1. Quantitative RT-PCR analysis of pho operon genes expression in S. meliloti cells under P-starving conditions. The relative expression level was >1 for genes more highly expressed in RD64 and in 1021 cells treated for 3 hours with 0.5 mM IAA, Ind, Trp, ICA and 2,4-D. The relative expression level was <1 for genes more highly expressed in 1021 cells (control). Error bars represent the standard deviation from five independent biological experiments (p<0.05).
Total RNA from P-sufficient and P-starved cells was isolated as previously described (5). cDNA were synthesized with the StrataScript™ reverse transcription reagents (Stratagene) and random hexamers as primers. Quantitative PCR was performed with the Power SYBR PCR Master Mix (Applied Biosystems). Reactions were run on the iCycler iQ (Bio-Rad). The thermo cycling condition were: 15 min at 95° C., 40 cycles of denaturation at 95° C. for 20 s, annealing (20 s) and extension (35 s) at 72° C. Specific primer pairs, designed using the Primer3 software, are shown.
smc02641 and smc00128 were used as housekeeping genes for data normalization in the comparative Ct method as previously described (8). Phosphatase Activity

[2] = system: acid phosphatase; experiment: Acid phosphatase activity under P-starved conditions; assay type: cell-based, S. meliloti; conditions: phosphate starvation; vs 1021 cells; compounds 0.5 mM, 3 hours at 30° C.
[3] = system: alkaline phosphatase; conditions: phosphate starvation; vs 1021 cells; compounds 0.5 mM, 3 hours at 30° C.
Protocol: Acid (A) and alkaline (B) phosphatase activity in S. meliloti cells under P-starved conditions. Log-phase cells grown in a MOPS-buffered minimal medium (starting P concentration=13 mM) were washed and then resuspended in the same medium containing no added P (1021 and RD64 strains) and 0.5 mM IAA, Trp or Ind (1021 strain). Treatments were performed for 3 hours at 30° C.
Alkaline and acid phophatase enzymes under P-limiting conditions were assayed as previously reported (16). Units are reported as nanomoles per minute per milligram of protein. Protein concentrations were determined by the Bradford's assay.

[4] = system: S. meliloti 1021; experiment: Microarray gene expression of 1021 cells treated with 0.5 mM compound; conditions: P-sufficient (13 mM); for pho genes among those significantly affected (microarray): 1021 + 0.5 mM compound vs untreated 1021;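 as to all read-outs here: cells were harvested 3 h after the start of each treatment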
Protocol: For P starvation experiments, cells of 1021 wild-type and RD64 strains were grown at 30° C. to mid exponential phase (OD600=0.6) in RMM broth containing 1% (w/v) mannitol as carbon source and 13 mM P, washed with RMM containing 0 P, resuspended in the same medium and then divided into three cultures. No P (−P), 1.0 mM P (P-starved cells) or 13 mM P (+P cells also named P-sufficient cells) was added into the three cultures, respectively. The P-starved and P-sufficient 1021 wild type cells were treated for 3.0 hours with 0.5 mM IAA. […] To rule out that this bacteria could be partially starved for Trp, RD64 cells were also treated with 0.5 mM Trp and used for microarrays and RT-PCR analyses. […] After 3 hours of each treatment, cell batches were collected, freezed and stored at −80° C. for use in experiments.

[5] = 1021 + 0.5 mM Tryptophan vs untreated 1021

Question: Which results are given for N[C@@H](Cc1c[nH]c2ccccc12)C(=O)O [Tryptophan, tryptophan]?
Answer: expression of pho genes in RD64 cells after addition of compound ([1]; 0.5 mM added to RD64 cells, vs untreated RD64 cells, data not shown): unaffected or slightly reduced; expression level of all five pho genes (RT-PCR) ([1]; P-starved conditions, vs control 1021, compounds 0.5 mM, 3 hours): only slightly induced or unchanged; phoB regulatory gene expression (qRT-PCR) ([1]; compounds 0.5 mM, 3 hours): unaffected; acid phosphatase activity [2]: unaffected, or only slightly increased; alkaline phosphatase activity [3]: unaffected, or only slightly increased; M (log2 ratio of intensities) SMa0707 sma0707 [4, 5]: 0.9084; M (log2 ratio of intensities) SMa0711 sma0711 [4, 5]: 0.8863; M (log2 ratio of intensities) SMa1007 sma1007 [4, 5]: 0.9801; M (log2 ratio of intensities) SMa1073 sma1073 [4, 5]: 0.7423; M (log2 ratio of intensities) SMa1087 sma1087 [4, 5]: 0.751; M (log2 ratio of intensities) SMa1118 hspC2 [4, 5]: 0.8663; M (log2 ratio of intensities) SMa1128 degP4 [4, 5]: 1.449; M (log2 ratio of intensities) SMa1321 virB1 [4, 5]: 4.445; M (log2 ratio of intensities) SMa2145 sma2145 [4, 5]: 0.9145; M (log2 ratio of intensities) SMa2189 sma2189 [4, 5]: 0.993; M (log2 ratio of intensities) SMb20585 ggt [4, 5]: 1.09; M (log2 ratio of intensities) SMb20672 smb20672 [4, 5]: 1.815; M (log2 ratio of intensities) SMb20984 nirB 4 [4, 5]: −1.11; M (log2 ratio of intensities) SMb21566 groEL5 [4, 5]: −1.021; M (log2 ratio of intensities) SMc00155 aroF [4, 5]: −1.565; M (log2 ratio of intensities) SMc00182 smc00182 [4, 5]: −1.097; M (log2 ratio of intensities) SMc01169 ald [4, 5]: 0.7379; M (log2 ratio of intensities) SMc01293 rplR 3 [4, 5]: −0.7637; M (log2 ratio of intensities) SMc01311 tufA [4, 5]: −0.7229; M (log2 ratio of intensities) SMc01313 rpsG [4, 5]: −0.7518; M (log2 ratio of intensities) SMc01314 rpsL [4, 5]: −0.7349; M (log2 ratio of intensities) SMc01636 smc01636 [4, 5]: −0.9473; M (log2 ratio of intensities) SMc02507 sitC [4, 5]: 1.133; M (log2 ratio of intensities) SMc03253 smc03253 [4, 5]: 2.689; M (log2 ratio of intensities) SMc04140 smc04140 [4, 5]: 2.032; M (log2 ratio of intensities) SMc04141 gst9 [4, 5]: 1.581; M (log2 ratio of intensities) SMc04147 smc04147 [4, 5]: 0.8262; M (log2 ratio of intensities) SMc04434 rpmH [4, 5]: −0.7758; pho genes among those significantly affected (microarray) [4]: did not find any pho genes

Question: Which “phoB regulatory gene expression (qRT-PCR)” value ([1]; compounds 0.5 mM, 3 hours) does the source give for O=C(O)COc1ccc(Cl)cc1Cl [2,4-D, 2,4-dichlorophenoxyacetic acid] here?
Answer: unaffected

Question: And the “pho genes among those significantly affected (microarray)” value [4]?
Answer: did not find any pho genes

Question: And the “M (log2 ratio of intensities) SMa1077 nex18” value ([4]; 1021 + 2,4-D vs untreated 1021)?
Answer: 2.581

Question: What about the “M (log2 ratio of intensities) SMa1128 degP4” value ([4]; 1021 + 2,4-D vs untreated 1021) of the same molecule?
Answer: 1.552

Question: What about the “M (log2 ratio of intensities) SMb21221 smb21221” value ([4]; 1021 + 2,4-D vs untreated 1021) of the same molecule?
Answer: 1.027

Question: And the “M (log2 ratio of intensities) SMc00151 gph1” value ([4]; 1021 + 2,4-D vs untreated 1021)?
Answer: −0.8713

Question: And the “M (log2 ratio of intensities) SMc00335 rpsA” value ([4]; 1021 + 2,4-D vs untreated 1021)?
Answer: −0.7145

Question: And the “M (log2 ratio of intensities) SMc00363 rpm1” value ([4]; 1021 + 2,4-D vs untreated 1021)?
Answer: −0.8021

Question: What about the “M (log2 ratio of intensities) SMc00591 smc00591” value ([4]; 1021 + 2,4-D vs untreated 1021) of the same molecule?
Answer: 0.8629

Question: What about the “M (log2 ratio of intensities) SMc00869 atpF2” value ([4]; 1021 + 2,4-D vs untreated 1021) of the same molecule?
Answer: −1.318

Question: What about the “M (log2 ratio of intensities) SMc00912 groES1” value ([4]; 1021 + 2,4-D vs untreated 1021) of the same molecule?
Answer: −1.272

Question: And the “M (log2 ratio of intensities) SMc01214 smc01214” value ([4]; 1021 + 2,4-D vs untreated 1021)?
Answer: −1.039

Question: And the “M (log2 ratio of intensities) SMc01291 rpmD” value ([4]; 1021 + 2,4-D vs untreated 1021)?
Answer: −0.9964

Question: What about the “M (log2 ratio of intensities) SMc01298 rplX” value ([4]; 1021 + 2,4-D vs untreated 1021) of the same molecule?
Answer: −1.26

Question: What about the “M (log2 ratio of intensities) SMc01299 rplN” value ([4]; 1021 + 2,4-D vs untreated 1021) of the same molecule?
Answer: −1.587

Question: What about the “M (log2 ratio of intensities) SMc01300 rpsQ” value ([4]; 1021 + 2,4-D vs untreated 1021) of the same molecule?
Answer: −0.9524

Question: And the “M (log2 ratio of intensities) SMc01301 rpmC” value ([4]; 1021 + 2,4-D vs untreated 1021)?
Answer: −2.007

Question: What about the “M (log2 ratio of intensities) SMc01319 rplJ” value ([4]; 1021 + 2,4-D vs untreated 1021) of the same molecule?
Answer: −1.788

Question: And the “M (log2 ratio of intensities) SMc01326 tufB” value ([4]; 1021 + 2,4-D vs untreated 1021)?
Answer: −1.664

Question: And the “M (log2 ratio of intensities) SMc01858 smc01858” value ([4]; 1021 + 2,4-D vs untreated 1021)?
Answer: −1.083

Question: What about the “M (log2 ratio of intensities) SMc01883 smc01883” value ([4]; 1021 + 2,4-D vs untreated 1021) of the same molecule?
Answer: −0.8788

Question: What about the “M (log2 ratio of intensities) SMc02340 smc02340” value ([4]; 1021 + 2,4-D vs untreated 1021) of the same molecule?
Answer: −1.408

Question: And the “M (log2 ratio of intensities) SMc02498 atpH” value ([4]; 1021 + 2,4-D vs untreated 1021)?
Answer: −1.251

Question: And the “M (log2 ratio of intensities) SMc02692 rplY” value ([4]; 1021 + 2,4-D vs untreated 1021)?
Answer: −0.8486

Question: And the “M (log2 ratio of intensities) SMc02717 leuA1” value ([4]; 1021 + 2,4-D vs untreated 1021)?
Answer: −0.8087

Question: And the “M (log2 ratio of intensities) SMc02905 dnaX” value ([4]; 1021 + 2,4-D vs untreated 1021)?
Answer: −0.7264

Question: And the “M (log2 ratio of intensities) SMc03805 tesB” value ([4]; 1021 + 2,4-D vs untreated 1021)?
Answer: 0.9991

Question: And the “M (log2 ratio of intensities) SMc03859 rpsP” value ([4]; 1021 + 2,4-D vs untreated 1021)?
Answer: −0.7104

Question: What about the “M (log2 ratio of intensities) SMc03979 gap” value ([4]; 1021 + 2,4-D vs untreated 1021) of the same molecule?
Answer: −1.065

Question: And the “M (log2 ratio of intensities) SMc04003 rpmJ” value ([4]; 1021 + 2,4-D vs untreated 1021)?
Answer: −1.331

Reference: patent US9157104B2, “Method to improve phosphate solubilization in plants” (Consiglio Nazionale delle Ricerche, priority 2009, dated 2015)
